Measurements reported in US20100267682A1, “CORTICOSTEROIDS TO TREAT EPOTHILONE OR EPOTHILONE DERIVATIVE INDUCED DIARRHEA” (NOVARTIS AG, priority 2007, published 2010).
Like-named read-outs stand apart in the source and are kept apart here. Marks after values point to notes of the source that are not given here.

Experiments:
[1] = system: BDix rats; assay: Patupilone-induced diarrhea scoring in BDix rats (grade 0-3, AUC days 3-7, days > G1); conditions: for Diarrh: Days > G1: BDix rats with s.c. A15 glioma; for Diarrhoea reduction (T/C) >G1D3-D6 / Diarrhoea reduction (T/C) AUCD3-D7: PAT 1.5 mg/kg i.v. D0, vs patupilone alone
Description: They are idendified by ear markings and kept in groups of 4 under normal conditions with access to food and water as libitum. Tumors: Rat glioma cells, A15 (aks 1a2r) are obtained from ECACC. […] Tumors are induced by concentrating 5×10^5 cells in 50 μl and injecting s.c. in the flank of the rats. […] Generally experiments begin when the tumors are >150 mm^3. Patupilone: Patupilone is weighed and dissolved in a vehicle of 30% PEG-300 and 70% normal saline to a final concentration of 1 mg/ml. Patupilone is injected i.v. in the tail vein as a bolus of 2-3 seconds at a dose of 1.5 mg/kg once. […] The suspension is sonicated for 30 min to achieve a milky suspension for oral administration (5 mL/kg).
Although prednisolone is administered orally daily, the dose and number of days of treatment are different in each experiment. The doses are 1, 3, 7 or 10 mg/kg which is roughly equivalent to 6, 17, 40 and 60 mg/m^2, respectively. When prednisolone and patupilone treatment are on the same day, prednisolone is administered 2-4 hours after treatment with patupilone.
Diarrhea: Diarrhea is monitored daily from day 3 post injection fo patupilone which is on day 0. Diarrhea is scored as follows:
Grade 1: soft but formed stool
Grade 2: soft unformed stool
Thus, each rat on each day of diarrhea (5 days from day […]) is graded 0-3 which allows a semi-quantitative analysis of the effects of different treatment. Two different abalytical methods are applied using a) area under the curve (AUCdays3-7) calculated using the trapezoidal rule as applied by Graphpad Prism (v. 4.0 for Windows) and b) the numbere of days in which diarrhea is graded >1. It is believed that the second approach is a more realistic comparison to the clinic since as described above G≦1 is not really diarrhea, and in the clinic, the major issue is avoiding severe diarrhea, i.e. clinical grades of ≧2.
(§1) After 10 days the rats are treated on day-0 once with patupilone (PAT) at 1.5 mg/kg i.v. bolus (G2, G4-G7) or PAT-vehicle (G1 & G3). All rats treated with prednisolone (Predn) received the drug p.o. at 7 mg/kg for 5 consecutive days (except G7 for 3 days only) either 1-day before (G4), on the same day (G7), 1-day after patupilone (G6) or 3-days after patupilone (G5).
Rats receive 7 mg/kg prednisolone (Predn) or the Predn-vehicle p.o. for 5 consecutive days (except G3 for 3 days) starting either on Day-0 (G1-G3) or after 24 hr (D+1) or 24 hr prior to PAT (D−1).

[2] = Total PAT exposure (AUC) in blood, tissues and tumor of BDix rats; type: in vivo, rat; conditions: for AUC24-336 hr (total PAT exposure): Example 4, mean ± SD, n = 3, PAT 1.5 mg/kg i.v. day 0, G2 Predn-vehicle or G4 Predn 7 mg/kg p.o. 5 days (D-1)
Description: G4 received prednisolone (Predn) p.o. at 7 mg/kg for 5 consecutive days while G2 received Predn-vehicle only for 5 days.

[3] = system: Rat glioma cells, A15; assay: BDix rat tumor model: s.c. A15 glioma tumour response; type: in vivo; conditions: for T/C Day-14: ΔTVol drug/ΔTVol vehicle
Excerpt: As the T/CTVol, i.e. [ΔTVOldrug/ΔTVolvehicle].

[4] = Description: They are idendified by ear markings and kept in groups of 4 under normal conditions with access to food and water as libitum. Tumors: Rat glioma cells, A15 (aks 1a2r) are obtained from ECACC. […] Tumors are induced by concentrating 5×10^5 cells in 50 μl and injecting s.c. in the flank of the rats. […] Generally experiments begin when the tumors are >150 mm^3. Patupilone: Patupilone is weighed and dissolved in a vehicle of 30% PEG-300 and 70% normal saline to a final concentration of 1 mg/ml. Patupilone is injected i.v. in the tail vein as a bolus of 2-3 seconds at a dose of 1.5 mg/kg once.
Efficacy and Tolerability: Tumor volume (Tvol) is quantified by change in tumor volume (endpoint vs. starting value in mm^3). As the T/CTVol, i.e. [ΔTVOldrug/ΔTVolvehicle]. The body weight of the rats is measured three times per week.
as §1, with “(G5). […]” for “(G5).”

[5] = system: HRPC (hormone-refractory prostate cancer) patients; assay: Clinical trial in HRPC patients: patupilone-induced diarrhea; type: in vivo, human; conditions: 10 mg (ca. 5.5 mg/m^2) prednisone per day
Description: HRPC (hormone-refractory prostate cancer) patients in a clinical trial are getting 10 mg (ca. 5.5 mg/m^2) prednisone per day.

[6] = Example 1, BDix rats, PAT 1.5 mg/kg i.v. once + Predn vehicle p.o. 7 days
[7] = Example 3 G2, PAT 1.5 mg/kg i.v. day 0 + Predn vehicle
[8] = Example 5 G1, BDix rats, PAT 1.5 mg/kg i.v. Day 0 + Veh-Predn p.o. 5 days (D0)
[9] = Example 2, BDix rats with s.c. A15 glioma, PAT 1.5 mg/kg i.v. once + Predn vehicle p.o. 7 days
[10] = Example 3 G2, BDix rats with s.c. A15 glioma, PAT 1.5 mg/kg i.v. day 0 + Predn vehicle
[11] = Example 1, Predn 1 mg/kg (6 mg/m^2) p.o. 7-days from D0
[12] = Example 1, Predn 3 mg/kg (17 mg/m^2) p.o. 7-days from D0
[13] = Example 1, Predn 10 mg/kg (60 mg/m^2) p.o. 7-days from D0
[14] = Example 2, Predn 3 mg/kg (17 mg/m^2) p.o. 7-days from D0
[15] = Example 2, Predn 10 mg/kg (60 mg/m^2) p.o. 7-days from DO
[16] = Example 3, Predn 7 mg/kg (40 mg/m^2) p.o. 3-days from D0
[17] = Example 3, Predn 7 mg/kg (40 mg/m^2) p.o. 5-days from D+1
[18] = Example 3, Predn 7 mg/kg (40 mg/m^2) p.o. 5-days from D−1
[19] = Example 3, Predn 7 mg/kg (40 mg/m^2) p.o. 7-days from D+3
[20] = Example 3 G3, Predn 7 mg/kg p.o. 5 days + PAT vehicle
[21] = Example 5, Predn 7 mg/kg (40 mg/m^2) p.o. 3-days from D0
[22] = Example 5, Predn 7 mg/kg (40 mg/m^2) p.o. 5-days from D0
[23] = Example 5, Predn 7 mg/kg (40 mg/m^2) p.o. 5-days from D+1
[24] = Example 5, Predn 7 mg/kg (40 mg/m^2) p.o. 5-days from D−1
[25] = Example 3 G3, BDix rats with s.c. A15 glioma, Predn 7 mg/kg p.o. 5 days + PAT vehicle

C/C(=C\c1csc(C)n1)[C@@H]1C[C@@H]2O[C@]2(C)CCC[C@H](C)[C@H](O)[C@@H](C)C(=O)C(C)(C)[C@@H](O)CC(=O)O1 [PAT, epothilone B]
Diarrhoea: Days > G1 [1, 6]: 2.7 ± 0.2 days | Diarrh: Days > G1 ([1]; Example 2, PAT 1.5 mg/kg i.v. once + Predn vehicle p.o. 7 days): 1.7 ± 0.3 days | Diarrh: Days > G1 [1, 7]: 2.9 ± 0.3 days | Diarrhoea: Days > G1 [1, 8]: 1.5 ± 0.3 days | AUC24-336 hr (total PAT exposure) ([2]; Blood): 1891 ± 344 ng/h/mL | AUC24-336 hr (total PAT exposure) ([2]; Brain): 64948 ± 6237 ng/h/mL | AUC24-336 hr (total PAT exposure) ([2]; Caecum): 53911 ± 10512 ng/h/mL | AUC24-336 hr (total PAT exposure) ([2]; Jejunum): 57045 ± 3988 ng/h/mL | AUC24-336 hr (total PAT exposure) ([2]; Liver): 56278 ± 9988 ng/h/mL | AUC24-336 hr (total PAT exposure) ([2]; Tumor): 142437 ± 36429 ng/h/mL | Tumour Wt [3, 9]: 0.83 ± 0.17 g | ΔTVol Day-14 [3, 10]: 277 ± 37 | T/C Day-14 [3, 7]: 0.35* | BW (g) Day-7 [4, 6]: 150 ± 3 g | Survival [4, 6]: 6/6 | Δ% BW Day-7 [4, 6]: −16.3 ± 1.3% | ΔBW (g) Day-7 [4, 6]: -29.5 ± 3.1 g | BW (g) Day-6 [4, 9]: 186 ± 3 g | Survival [4, 9]: 6/6 | Δ% BW Day-13 [4, 9]: −4.1 ± 2.1% | BW (g) Day-14 [4, 10]: 179 ± 4 g | Survival [4, 10]: 8/8 | Δ% BW Day-7 [4, 10]: −18.6 ± 1.3 % | Δ% BW Day-14 [4, 10]: −4.4 ± 1.8 % | BW (g) Day-7 [4, 8]: 163 ± 3 g | Survival [4, 8]: 8/8 | Δ% BW Day-7 [4, 8]: −12.0 ± 1.2%

C[C@]12C=CC(=O)C=C1CC[C@@H]1[C@@H]2[C@@H](O)C[C@@]2(C)[C@H]1CC[C@]2(O)C(=O)CO [Predn, prednisolone]
Effect on diarrhea caused by an efficacious dose of patupilone ([1]; BDix rats, summary of Examples 1-6): able to reproducibly reduce diarrhea | Diarrhoea reduction (T/C) >G1D3-D6 [1, 11]: 0.81 | Diarrhoea reduction (T/C) AUCD3-D7 [1, 11]: 0.85 | Diarrhoea reduction (T/C) >G1D3-D6 [1, 12]: 0.13 | Diarrhoea reduction (T/C) AUCD3-D7 [1, 12]: 0.30 | Diarrhoea reduction (T/C) >G1D3-D6 [1, 13]: 0.06 | Diarrhoea reduction (T/C) AUCD3-D7 [1, 13]: 0.20 | Diarrhoea reduction (T/C) >G1D3-D6 [1, 14]: 0 | Diarrhoea reduction (T/C) AUCD3-D7 [1, 14]: 0.14 | Diarrhoea reduction (T/C) >G1D3-D6 [1, 15]: 0 | Diarrhoea reduction (T/C) AUCD3-D7 [1, 15]: 0.01 | Diarrhoea reduction (T/C) >G1D3-D6 [1, 16]: 0.57 | Diarrhoea reduction (T/C) AUCD3-D7 [1, 16]: 0.60 | Diarrhoea reduction (T/C) >G1D3-D6 [1, 17]: 0.52 | Diarrhoea reduction (T/C) AUCD3-D7 [1, 17]: 0.57 | Diarrhoea reduction (T/C) >G1D3-D6 [1, 18]: 0.65 | Diarrhoea reduction (T/C) AUCD3-D7 [1, 18]: 0.61 | Diarrhoea reduction (T/C) >G1D3-D6 [1, 19]: 0.57 | Diarrhoea reduction (T/C) AUCD3-D7 [1, 19]: 0.75 | Diarrh: Days > G1 [1, 20]: 0 days | Diarrhoea reduction (T/C) >G1D3-D6 [1, 21]: 0.08 | Diarrhoea reduction (T/C) AUCD3-D7 [1, 21]: 0.11 | Diarrhoea reduction (T/C) >G1D3-D6 [1, 22]: 0 | Diarrhoea reduction (T/C) AUCD3-D7 [1, 22]: 0.03 | Diarrhoea reduction (T/C) >G1D3-D6 [1, 23]: 0 | Diarrhoea reduction (T/C) AUCD3-D7 [1, 23]: 0.17 | Diarrhoea reduction (T/C) >G1D3-D6 [1, 24]: 0 | Diarrhoea reduction (T/C) AUCD3-D7 [1, 24]: 0.18 | Effect of prednisolone on patupilone exposure ([2]; BDix rats, summary): no evidence that prednisolone interferred with significantly with patupilone exposure | ΔTVol Day-14 [3, 25]: 728 ± 93 | T/C Day-14 [3, 20]: 0.93 | Survival [4, 25]: 8/8

C[C@]12C=CC(=O)C=C1CC[C@@H]1[C@@H]2C(=O)C[C@@]2(C)[C@H]1CC[C@]2(O)C(=O)CO [prednisone]
Effect on epothilone B (patupilone)-induced diarrhea [5]: does not seem to have an effect
